In publication PMC2716488, “Functional Expression of a DNA-Topoisomerase IB from Cryptosporidium parvum” (Journal of Biomedicine and Biotechnology, 2009):

Target: T1, CpTopIB (Cryptosporidium parvum, UniProt Q5CY81)
T1 construct: gene cgd7_3350; expressed from YCpGAL in S. cerevisiae EKY3 (top1 deleted), purified on phosphocellulose and phenyl-sepharose; monomer; no tag mentioned
T1 sequence (Q5CY81 13-653): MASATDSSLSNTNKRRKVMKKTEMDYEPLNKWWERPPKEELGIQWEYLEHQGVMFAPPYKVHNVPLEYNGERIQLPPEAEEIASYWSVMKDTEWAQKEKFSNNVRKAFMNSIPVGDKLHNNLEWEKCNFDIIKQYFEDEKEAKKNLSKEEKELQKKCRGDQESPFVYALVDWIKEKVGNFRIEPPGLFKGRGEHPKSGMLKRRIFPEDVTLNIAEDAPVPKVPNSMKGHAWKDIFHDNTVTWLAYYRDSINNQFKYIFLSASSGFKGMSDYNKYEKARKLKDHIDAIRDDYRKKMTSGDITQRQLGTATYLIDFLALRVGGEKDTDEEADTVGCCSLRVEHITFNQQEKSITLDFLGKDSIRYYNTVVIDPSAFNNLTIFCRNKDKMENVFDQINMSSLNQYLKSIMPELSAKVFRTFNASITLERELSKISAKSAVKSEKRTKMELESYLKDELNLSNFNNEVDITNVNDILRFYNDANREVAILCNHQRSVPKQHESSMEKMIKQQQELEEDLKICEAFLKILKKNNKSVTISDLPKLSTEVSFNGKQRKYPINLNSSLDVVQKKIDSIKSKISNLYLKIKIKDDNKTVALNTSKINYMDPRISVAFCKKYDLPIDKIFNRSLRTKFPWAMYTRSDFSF
Assay: DNA cleavage assay, nicked DNA on agarose gel
Assay type: biochemical
Details: supercoiled phiX174 RF I DNA, pH 7.5, 50 mM KCl, 1% DMSO, 30 or 37°C; stabilises the enzyme-DNA cleavable complex

Compound | nicked-DNA increase at 10 and 100 μM
CC[C@@]1(O)C(=O)OCc2c1cc1n(c2=O)Cc2cc3c(CN(C)C)c(O)ccc3nc2-1 [topotecan] | There is a dose-dependent nicked-DNA increase for CPT and topotecan
CC[C@@]1(O)C(=O)OCc2c1cc1n(c2=O)Cc2cc3ccccc3nc2-1 [CPT, camptothecin] | There is a dose-dependent nicked-DNA increase for CPT and topotecan
